Laboratory results published in ChEMBL document CHEMBL1155136, “Role of the ABC transporter PRP1 (ABCC7) in pentamidine resistance in Leishmania amastigotes” (Antimicrob Agents Chemother, 2007).

What was measured:
Leishmania amazonensis [1] = assay: Antileishmanial activity against ABC transporter PRP1 gene expressing Leishmania amazonensis MHOM/BR/1973/MM2269 promastigotes infected in human THP1 cells assessed as fold resistance by luciferase based assay relative to control; format: functional, THP-1
Leishmania major [2] = assay: Antileishmanial activity against wild-type Leishmania major LV39 promastigotes infected in human THP1 cells by luciferase based assay; format: functional, organism-based; conditions: LV39, THP-1
Leishmania amazonensis [3] = assay: Antileishmanial activity against wild-type Leishmania amazonensis MHOM/BR/1973/MM2269 promastigotes infected in human THP1 cells by luciferase based assay; format: functional, organism-based; conditions: THP-1
Leishmania infantum [4] = assay: Antileishmanial activity against wild-type Leishmania infantum MHOM/MA/67/ITMAP-263 promastigotes infected in human THP1 cells by luciferase based assay; format: functional, organism-based; conditions: THP-1
Leishmania infantum [5] = assay: Antileishmanial activity against ABC transporter PRP1 gene expressing Leishmania infantum MHOM/MA/67/ITMAP-263 axenic amastigotes assessed as fold resistance relative to control
Leishmania major [6] = assay: Antileishmanial activity against ABC transporter PRP1 gene expressing Leishmania major LV39 promastigotes infected in human THP1 cells assessed as fold resistance by luciferase based assay relative to control; format: functional, THP-1

SMILES	fold change (FC) (Leishmania amazonensis [1])	IC50 (Leishmania major [2])	IC50 (Leishmania amazonensis [3])	IC50 (Leishmania infantum [4])	fold change (FC) (Leishmania infantum [5])	fold change (FC) (Leishmania major [6])
N=C(N)c1ccc(OCCCCCOc2ccc(C(=N)N)cc2)cc1 [PENTAMIDINE]	3	5.1 µg/mL	6.8 µg/mL	10 µg/mL	3	3
COc1ccc(CCN(C)CCCC(C#N)(c2ccc(OC)c(OC)c2)C(C)C)cc1OC (centres undefined) [VERAPAMIL]	–	40.3 µM	19.1 µM	43.2 µM	–	–
